The text below walks through data of paper PMC11887451, “Leveraging Immunogenic Cell Death to Enhance the Immune Response against Malignant Pleural Mesothelioma Tumors” (Journal of the American Chemical Society, 2025).

By IC50 is commonly meant the point on the concentration scale where inhibition reaches its midpoint.

Details in all cases: exposure time 72 h
Assay [1] has as its system human malignant mesothelioma cell line LO68. The assay is described as follows: MTT cytotoxicity assay, 72 h, LO68. Format: cell-based. On the technique in general: Tetrazolium assays rely on reduction of a dye to a coloured formazan, in cell work by metabolically active cells.
The subject of assay [2] is patient-derived Meso92 cell line (biphasic MPM). Put plainly: MTT cytotoxicity assay, 72 h, Meso92. In kind it is cell-based, human.
Assay [3] concerns human malignant mesothelioma cell line JU77. The assay is described as follows: MTT cytotoxicity assay, 72 h, JU77. Format: cell-based.
Assay [4] relates to human nonmalignant mesothelioma cell line Met5A. The assay is described as follows: MTT cytotoxicity assay, 72 h, Met5A. In kind it is cell-based.
From the text: Cell lines and culture conditions
Mouse malignant mesothelioma cancer cell line AB12, human nonmalignant mesothelioma cancer cell line Met5A (mesothelial cells), mouse macrophage cell line J774 and human monocytic cell line THP-1 were obtained from American Type Culture Collection (ATCC) (Rockville, MD, USA). Human malignant mesothelioma cell lines VMC23 (epithelial), Meso82 (sarcomatous), Meso92 (biphasic), were kindly provided by Prof. Walter Berger (Medical University of Vienna). All cells except for J774 were cultured in RPMI and J774 cells were cultured in DMEM. Both types of media were supplemented with 10% FBS and 1% penicillin-streptomycin (10,000 U/mL). Cells were grown in tissue culture flasks (75 cm2 and 25 cm2, SPL Life Sciences Co., Ltd., Korea). All cell lines were grown at 37 °C in a humidified atmosphere of 95% air and 5% CO 2 and passaged when they reached 80–90% confluency. All Au stock solutions were prepared in 1% DMSO in the respected medium, ensuring that cell viability was not inhibited. The Au concentration in the stock solutions was confirmed through inductively coupled plasma optical emission spectrometry. The stock solution of pemetrexed (10 mM) was prepared in Milli -Q water.
Inhibition of c ell viability assay
(§1) The cytotoxicity of compounds was determined using an MTT colorimetric test. The cells were harvested from culture flasks by trypsinization and seeded into Cellstar 96 -well microculture plates (Greiner Bio -One) at the seeding density of 6000 cells per well (6 × 10^4 cells/mL). After
(§2) the cells were allowed to resume exponential growth for 16 h, they were exposed to drugs at
(§3) different concentrations in media for 72 h. The drugs were diluted in a complete medium at the desired concentration added to each well (100 μL) and serially diluted in other wells. After exposure for 72 h, the media was replaced with MTT in media (5 mg/mL, 100 μL/well) and
(§4) incubated for an additional 50 min. Subsequently, the medium was aspirated, and the purple formazan crystals formed in viable cells were dissolved in DMSO (100 μL/well). Optical densities were measured at 570 nm using a BioTek Synergy H1 microplate and MultiskanTM SkyHigh plate readers. The quantity of viable cells was expressed in terms of treated/control (T/C) values in comparison to untreated control cells, and 50% inhibitory concentrations (IC 50) were calculated from concentration-effect curves by interpolation. An evaluation was based on means from at least three independent experiments, each comprising three replicat es per
The subject of assay [5] is patient-derived Meso84 cell line (sarcomatoid MPM). Put plainly: MTT cytotoxicity assay, 72 h, Meso84. Format: cell-based, human.
From the text: (§5) Human malignant mesothelioma cancer cell lines JU77 and LO68 were obtained from Cell Bank Australia (Children's Medical Research Institute, Westmead, Australia). Mouse malignant mesothelioma cancer cell line AB12, human nonmalignant mesothelioma cancer cell line Met5A (mesothelial cells), mouse macrophage cell line J774 and human monocytic cell line THP-1 were obtained from American Type Culture Collection (ATCC) (Rockville, MD, USA). Human malignant mesothelioma cell lines VMC23 (epithelial), Meso82 (sarcomatous), Meso92 (biphasic), were kindly provided by Prof. Walter Berger (Medical University of Vienna). All cells except for J774 were cultured in RPMI and J774 cells were cultured in DMEM. Both types of media were supplemented with 10% FBS and 1% penicillin-streptomycin (10,000 U/mL). Cells were grown in tissue culture flasks (75 cm2 and 25 cm2, SPL Life Sciences Co., Ltd., Korea). All cell lines were grown at 37 °C in a humidified atmosphere of 95% air and 5% CO 2 and passaged when they reached 80–90% confluency. All Au stock solutions were prepared in 1% DMSO in the respected medium, ensuring that cell viability was not inhibited.
as §1, §2, §3, §4
(§6) DMSO had not impact on the cell viability at the concentrations used.
Assay [6] deals with patient-derived VMC23 cell line (epithelioid MPM). The assay is described as follows: MTT cytotoxicity assay, 72 h, VMC23. Format: cell-based, human.
From the text: as §5, §1, §2, §3, §4, §6
Assay [7] concerns murine malignant mesothelioma cell line AB12. Put plainly: MTT cytotoxicity assay, 72 h, AB12. Format: cell-based, mouse.

For the compound `COC1c2cccc[c]2[Au-]2([S]C(=[N+](C)C)[S]2)[n+]2ccccc21.F[P-](F)(F)(F)(F)F` (racemic) [4A], the IC50 was found to be 1300 ± 300 nM in assay [1]; 160 ± 30 nM in assay [2]; 1400 ± 200 nM in assay [3]; 720 ± 210 nM in assay [4]; 190 ± 30 nM in assay [5]; 4700 ± 700 nM in assay [6]. This compound also showed an IC50 in assay [7] of 290 ± 40 nM.
For `CC[N+](CC)=C1[S][Au-]2([S]1)[c]1ccccc1C(OC)c1cccc[n+]12.F[P-](F)(F)(F)(F)F` (racemic) [4B], the IC50 amounted to 2900 ± 800 nM in assay [1]; 6300 ± 1000 nM in assay [2]; 4800 ± 700 nM in assay [3]; 430 ± 130 nM in assay [4]; 1700 ± 500 nM in assay [5]; 7300 ± 1800 nM in assay [6]. Besides, in assay [7], the IC50 is 330 ± 100 nM.
As to `COC1c2cccc[c]2[Au-]2([S]C(=[N+]3CCCC3)[S]2)[n+]2ccccc21.F[P-](F)(F)(F)(F)F` (racemic) [4F], the IC50 in assay [1] stood at 1400 ± 200 nM; in assay [2] it was 1700 ± 500 nM; in assay [3] it was 3300 ± 800 nM; in assay [4], 740 ± 90 nM; in assay [5] it was 340 ± 100 nM; in assay [6] it was 2900 ± 300 nM. This compound had an IC50 in assay [7] of 320 ± 50 nM.
In the case of `COC1c2cccc[c]2[Au-]2([S]C(=[N+]3CCCCCC3)[S]2)[n+]2ccccc21.F[P-](F)(F)(F)(F)F` (racemic) [4G], the 50% inhibitory concentration (IC50) in assay [1] worked out at 1600 ± 200 nM; in assay [2] it was 4800 ± 500 nM; in assay [3], 2400 ± 700 nM; in assay [4], 2000 ± 300 nM; in assay [5] it was 1800 ± 400 nM; in assay [6] it was 3500 ± 700 nM. For the same compound, half-maximal inhibition in assay [7] (IC50) was put at 230 ± 60 nM.
As for `C[N+](C)=C1[S][Au-]2([S]1)[c]1ccccc1-c1cccc[n+]12.F[P-](F)(F)(F)(F)F` (stereo not shown) [1A], the IC50 in assay [1] came to 1000 ± 300 nM; in assay [2] it was 190 ± 40 nM; in assay [3], 1100 ± 300 nM; in assay [4], 310 ± 70 nM; in assay [5], 1300 ± 300 nM; in assay [6] it was 630 ± 150 nM. Further, 88 ± 2 nM corresponded to half-maximal inhibition in assay [7] (IC50).
With `CC[N+](CC)=C1[S][Au-]2([S]1)[c]1ccccc1-c1cccc[n+]12.F[P-](F)(F)(F)(F)F` (stereo not shown) [1B], the IC50 in assay [1] came to 550 ± 160 nM; in assay [2] it was 690 ± 210 nM; in assay [3], 890 ± 130 nM; in assay [4] it was 530 ± 70 nM; in assay [5], 85 ± 7 nM; in assay [6], 1600 ± 300 nM. In assay [7], the IC50 came out at 190 ± 20 nM.
In the case of `F[P-](F)(F)(F)(F)F.c1ccc(C[N+](Cc2ccccc2)=C2[S][Au-]3([S]2)[c]2ccccc2-c2cccc[n+]23)cc1` (stereo not shown) [1D], the IC50 in assay [1] worked out at 1500 ± 400 nM; in assay [2], 1400 ± 300 nM; in assay [3], 760 ± 100 nM; in assay [4] it was 1300 ± 300 nM; in assay [5] it was 1400 ± 100 nM; in assay [6], 1400 ± 200 nM. Besides, the IC50 in assay [7] stood at 1900 ± 200 nM.
`CC[N+](=C1[S][Au-]2([S]1)[c]1ccccc1-c1cccc[n+]12)c1ccccc1.F[P-](F)(F)(F)(F)F` (stereo not shown) [1E]: the IC50 in assay [1] turned out to be 2300 ± 300 nM; in assay [2], 2000 ± 300 nM; in assay [3], 850 ± 100 nM; in assay [4], 690 ± 130 nM; in assay [5], 1200 ± 100 nM; in assay [6] it was 1300 ± 200 nM. Further, in assay [7], the IC50 amounted to 840 ± 200 nM.
With `F[P-](F)(F)(F)(F)F.c1cc[c]2c(c1)-c1cccc[n+]1[Au-]21[S]C(=[N+]2CCCC2)[S]1` (stereo not shown) [1F], the IC50 in assay [1] was 1700 ± 300 nM; in assay [2] it was 220 ± 60 nM; in assay [3] it was 1500 ± 100 nM; in assay [4] it was 180 ± 50 nM; in assay [5], 190 ± 40 nM; in assay [6] it was 930 ± 280 nM. Moreover, it took 200 ± 60 nM to reach half-maximal inhibition in assay [7] (IC50).
`C[N+](C)=C1[S][Au-]2([S]1)[c]1ccccc1Cc1cccc[n+]12.F[P-](F)(F)(F)(F)F` (stereo not shown) [2A]: the half-maximal inhibitory concentration (IC50) came to 1200 nM in assay [1]; 260 ± 40 nM in assay [2]; 2800 ± 200 nM in assay [3]; 430 ± 80 nM in assay [4]; 220 ± 60 nM in assay [5]; 8400 ± 1000 nM in assay [6]. This compound displayed an IC50 in assay [7] of 170 ± 20 nM.
